The record followed here is US8859728B2, “Peptides that target dorsal root ganglion neurons” (Baylor College of Medicine, priority 2008, dated 2014).

Where no end group is shown, it is not given here.

Assay [1] concerns DRG neurons. As to the kind of experiment: In vivo binding of GST-peptide-fusion proteins to DRG neurons after subarachnoid injection. Further details: species or system mouse. As to conditions: L5 DRG; for NF-L-positive neurons positive for GST fusion protein: 5 μg into subarachnoid space, C57BL/6 mice, 1 h; for mean diameter of cells positive for GST fusion protein: in vivo, mean±SD. The source says: To evaluate their binding to DRG cells in vivo, GST fusion proteins of three selected peptides were synthesized using the pGEX4T-1 vector kit (Amersham, Piscataway, N.J.) according to the manufacturer's instructions. Briefly, oligonucleotides for C-DRG1-C, C-DRG2-C, and C-DRG3-C were synthesized cloned into the pGEX4T-1 vector, and transformed in E. coli. The synthesized GST-fusion proteins were pull down by Glutathione Sepharose 4B (Amersham), and purified. The purities and reactions to anti-GST antibodies (Amersham) were confirmed by gel-electrophoresis stained by Coomassie Blue and anti-GST immunoblotting.
Under intraperitoneal pentobarbiturate anesthesia (0.1 mg/g BW), 10 μl (500 μg/ml) of purified GST-fusion proteins (GST-DRG1, GST-DRG2, GST-DRG3, or GST alone) were injected into the subarachnoid space of 8-week-old female C57BL/6 mice (n=3 each). After 1 h, the mice were sacrificed and transcardially perfused with cold saline followed by 4% paraformaldehyde, 0.5% glutaraldehyde and 0.3% picric acid in 0.1 M PBS (pH 7.4). The L5 DRGs were then isolated and cut sectioned (10 μm) for fluorescence immunohistochemistry. After blocking with 10% horse serum, the sections were incubated overnight at 4° C. with goat anti-GST antibody (Amersham) diluted 1:1000 and rabbit anti-neurofilament L (NF-L, non-phosphorylated form, Chemicon, Temecula, Calif.) antibody diluted 1:100 in PBST. The sections were incubated for 1 h with Alexa Fluor 488-labeled anti-goat IgG and Alexa Fluor 555-labeled anti-rabbit IgG (Molecular Probes, Eugene, Oreg.) at room temperature, mounted with VECTASHIELD mounting medium containing 4′,6-diamidino-2-phenylindole (DAPI) (Vector Laboratories Inc., Burlingame, Calif.), and observed under a fluorescence microscope (Axioplan 2 imaging and Axiocam, Carl Zeiss, Jena, Germany). For quantitative analysis, the inventors took pictures of randomly selected fields and measured diameters (long and short) of the cells positive for GST, NF-L and DAPI. The mean cell size was calculated as the mean of the long and short diameters, and cell-size differences were evaluated in the three different groups.

The test system of assay [2] is isolated DRG neurons. As to the kind of experiment: Double staining of isolated DRG neurons after incubation with DRG-p1 and GST-DRG3. In kind it is cell-based, mouse. As to conditions: antibodies against phage and GST. The source says:
The Ph.D.-C7C Phage display Peptide Library kit expresses random 7-amino acid peptides fused to the minor coat protein (pIII) of the M13 phage. By sequence analysis, only 113 phage plaques were represented in the bound peptide, consistent with a very efficient selection process (Table 2). The final binding studies allowed identification of three phages (DRG1, DRG2, or DRG3) that occurred repeatedly. In specific embodiments of the invention, the efficient identification of these clones was the result of multiple rounds of positive and negative selection using the biopanning protocol (Liang et al., 2006), although in specific cases some of the other 84 clones (Table 2) are true DRG-binding peptide-phages. […] Moreover, the size specificity of target neurons for individual peptides was confirmed by in vivo binding experiments: GST-DRG1 and GST-DRG3 recognized small-sized neurons, and GST-DRG2 recognized large-sized neurons. Since both DRG1 and DRG3 recognized small sized neurons, two peptide ligands might bind to the same cell populations. Therefore, double staining was performed of isolated DRG neurons after the incubation with DRG-p1 and GST-DRG3 by antibodies against phage and GST, respectively. Double positive staining was obtained in 51% of DRG-p1-positive neurons, and was in 71% of GST-DRG3-positive neurons, respectively. […]

With “GST-DRG1: GST fusion protein of peptide C-DRG1-C made with pGEX4T-1 in E. coli (CSPGARAFC; cysteine pairing not given here; also: GST fusion protein, GST not in chain)”, in assay [1], the “NF-L-positive neurons positive for GST fusion protein” value (“NF-L-positive neurons positive” below) amounted to 39% and the “mean diameter of cells positive for GST fusion protein” value (“mean diameter of cells positive” below) is reported as 21.6±5.2 μm.

Regarding “GST-DRG2: GST fusion protein of peptide C-DRG2-C made with pGEX4T-1 in E. coli (CDGPWRKMC; cysteine pairing not given here; also: GST fusion protein, GST not in chain)”, in assay [1], the “NF-L-positive neurons positive” value was found to be 25% and the “mean diameter of cells positive” value was found to be 33.5±7.4 μm.

Take “GST-DRG3: GST fusion protein of peptide C-DRG3-C made with pGEX4T-1 in E. coli (CFGQKASSC; cysteine pairing not given here; also: GST fusion protein, GST not in chain)”: in assay [2], the “double positive staining (DRG-p1 and GST-DRG3) as share of neurons positive for the named ligand” value stood at 71%. Besides, in assay [1], the “NF-L-positive neurons positive” value came out at 14% and the “mean diameter of cells positive” value came out at 22.7±6.6 μm.
